target: T1, human OX2 receptor (Homo sapiens, UniProt O43614); experiment: Measurement of orexin type 2 receptor agonist activity (calcium fluorescence, Fluo-4, FDSS); format: cell-based; details: 3 uM test compound; CHO cells expressing human OX2 receptor; DMSO = 0%, 10 nM orexin A (human) = 100%
T1 construct: expressed in transfected cells
T1 sequence (O43614 1-444): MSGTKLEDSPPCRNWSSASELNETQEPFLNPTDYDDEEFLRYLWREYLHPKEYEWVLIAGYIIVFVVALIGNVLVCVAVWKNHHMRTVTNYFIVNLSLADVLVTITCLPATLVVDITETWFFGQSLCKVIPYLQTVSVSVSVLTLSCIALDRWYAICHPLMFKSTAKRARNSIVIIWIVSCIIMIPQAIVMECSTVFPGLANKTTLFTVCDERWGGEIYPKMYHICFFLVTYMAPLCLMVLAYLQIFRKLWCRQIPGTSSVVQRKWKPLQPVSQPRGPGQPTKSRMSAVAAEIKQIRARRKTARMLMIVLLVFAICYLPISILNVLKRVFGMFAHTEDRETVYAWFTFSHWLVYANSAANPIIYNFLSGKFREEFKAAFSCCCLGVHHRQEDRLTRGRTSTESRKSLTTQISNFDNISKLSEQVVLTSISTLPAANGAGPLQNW
Summary of the method: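 CHO-K1 cells stably expressing human OX2 receptor (residues 1-444) were loaded with Fluo-4 AM plus probenecid. Calcium fluorescence after compound addition was recorded for 1 min 40 s. Activity (%) was scaled between DMSO (0%) and 10 nM orexin A final (100%).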

| OX2R agonist activity (3 uM, %) [%] | SMILES |
| --- | --- |
| 102 | CS(=O)(=O)N[C@@H]1Cn2c(cn(-c3noc4cc(OC(F)F)cc(-c5c(F)cc(F)cc5F)c34)c2=O)C1(F)F [Example 113, N-{(6R)-2-[6-(difluoromethoxy)-4-(2,4,6-trifluorophenyl)-1,2-benzoxazol-3-yl]-7,7-difluoro-3-oxo-2,5,6,7-tetrahydro-3H-pyrrolo[1,2-c]imidazol-6-yl}methanesulfonamide] |
| 93 | CCS(=O)(=O)N[C@@H]1Cn2c(cn(-c3noc4cc(F)cc(-c5c(F)cc(F)cc5F)c34)c2=O)C1(F)F [Example 116, N-{(6R)-7,7-difluoro-2-[6-fluoro-4-(2,4,6-trifluorophenyl)-1,2-benzoxazol-3-yl]-3-oxo-2,5,6,7-tetrahydro-3H-pyrrolo[1,2-c]imidazol-6-yl}ethanesulfonamide] |
| 91 | Cc1cc(-c2c(F)cccc2F)c2c(-n3cc4n(c3=O)C[C@@H](NS(C)(=O)=O)C4(F)F)noc2n1 [Example 118, N-{(6R)-2-[4-(2,6-difluorophenyl)-6-methyl[1,2]oxazolo[5,4-b]pyridin-3-yl]-7,7-difluoro-3-oxo-2,5,6,7-tetrahydro-3H-pyrrolo[1,2-c]imidazol-6-yl}methanesulfonamide] |
| 105 | Cc1cc2onc(N3C[C@H]4N(C[C@@H](NS(C)(=O)=O)C4(F)F)C3=O)c2c(-c2c(F)cc(F)cc2F)c1F [Example 119, N-{(6R,7aR)-7,7-difluoro-2-[5-fluoro-6-methyl-4-(2,4,6-trifluorophenyl)-1,2-benzoxazol-3-yl]-3-oxohexahydro-1H-pyrrolo[1,2-c]imidazol-6-yl}methanesulfonamide] |
| 93 | CCS(=O)(=O)N[C@@H]1Cn2c(cn(-c3noc4cc(F)c(F)c(-c5c(F)cc(F)cc5F)c34)c2=O)C1(F)F [Example 121, N-{(6R)-2-[5,6-difluoro-4-(2,4,6-trifluorophenyl)-1,2-benzoxazol-3-yl]-7,7-difluoro-3-oxo-2,5,6,7-tetrahydro-3H-pyrrolo[1,2-c]imidazol-6-yl}ethanesulfonamide] |
| 101 | CCS(=O)(=O)N[C@@H]1CN2C(=O)N(c3noc4cc(F)cc(-c5c(F)cc(F)cc5F)c34)C[C@@H]2C1(F)F [Example 124, N-{(6R,7aR)-7,7-Difluoro-2-[6-fluoro-4-(2,4,6-trifluorophenyl)-1,2-benzoxazol-3-yl]-3-oxohexahydro-1H-pyrrolo[1,2-c]imidazol-6-yl}ethanesulfonamide] |
| 97 | Cc1cc(-c2c(F)cccc2F)c2c(N3C[C@H]4N(C[C@@H](NS(C)(=O)=O)C4(F)F)C3=O)noc2c1 [Example 126, N-{(6R,7aR)-2-[4-(2,6-Difluorophenyl)-6-methyl-1,2-benzoxazol-3-yl]-7,7-difluoro-3-oxohexahydro-1H-pyrrolo[1,2-c]imidazol-6-yl}methanesulfonamide] |
| 102 | Cc1cc(-c2c(F)cc(F)cc2F)c2c(-n3cc4n(c3=O)C[C@@H](NS(C)(=O)=O)C4(F)F)noc2c1 [Example 127, N-{(6R)-7,7-difluoro-2-[6-methyl-4-(2,4,6-trifluorophenyl)-1,2-benzoxazol-3-yl]-3-oxo-2,5,6,7-tetrahydro-3H-pyrrolo[1,2-c]imidazol-6-yl}methanesulfonamide] |
| 98 | CS(=O)(=O)N[C@@H]1Cn2c(cn(-c3noc4cc(CO)cc(-c5c(F)cc(F)cc5F)c34)c2=O)C1(F)F [Example 128, N-{(6R)-7,7-difluoro-2-[6-(hydroxymethyl)-4-(2,4,6-trifluorophenyl)-1,2-benzoxazol-3-yl]-3-oxo-2,5,6,7-tetrahydro-3H-pyrrolo[1,2-c]imidazol-6-yl}methanesulfonamide] |
| 99 | CS(=O)(=O)N[C@@H]1Cn2c(cn(-c3noc4cc(C(F)(F)F)cc(-c5c(F)cc(F)cc5F)c34)c2=O)C1(F)F [Example 130, N-{(6R)-7,7-difluoro-3-oxo-2-[6-(trifluoromethyl)-4-(2,4,6-trifluorophenyl)-1,2-benzoxazol-3-yl]-2,5,6,7-tetrahydro-3H-pyrrolo[1,2-c]imidazol-6-yl}methanesulfonamide] |
| 94 | COCc1cc(-c2c(F)cccc2F)c2c(-n3cc4n(c3=O)C[C@@H](NS(C)(=O)=O)C4(F)F)noc2c1 [Example 132, N-{(6R)-2-[4-(2,6-difluorophenyl)-6-(methoxymethyl)-1,2-benzoxazol-3-yl]-7,7-difluoro-3-oxo-2,5,6,7-tetrahydro-3H-pyrrolo[1,2-c]imidazol-6-yl}methanesulfonamide] |
| 100 | CS(=O)(=O)N[C@@H]1Cn2c(cn(-c3noc4cc(F)c(F)c(-c5c(F)cc(F)cc5F)c34)c2=O)C1(F)F [Example 135, N-{(6R)-2-[5,6-difluoro-4-(2,4,6-trifluorophenyl)-1,2-benzoxazol-3-yl]-7,7-difluoro-3-oxo-2,5,6,7-tetrahydro-3H-pyrrolo[1,2-c]imidazol-6-yl}methanesulfonamide] |
| 99 | CS(=O)(=O)N[C@@H]1Cn2c(cn(-c3noc4cc(C(F)F)cc(-c5c(F)cccc5F)c34)c2=O)C1(F)F [Example 136, N-{(6R)-2-[6-(difluoromethyl)-4-(2,6-difluorophenyl)-1,2-benzoxazol-3-yl]-7,7-difluoro-3-oxo-2,5,6,7-tetrahydro-3H-pyrrolo[1,2-c]imidazol-6-yl}methanesulfonamide] |
| 101 | CNS(=O)(=O)N[C@@H]1Cn2c(cn(-c3noc4cc(F)cc(-c5c(F)cc(F)cc5F)c34)c2=O)C1(F)F [Example 139, N-{(6R)-7,7-difluoro-2-[6-fluoro-4-(2,4,6-trifluorophenyl)-1,2-benzoxazol-3-yl]-3-oxo-2,5,6,7-tetrahydro-3H-pyrrolo[1,2-c]imidazol-6-yl}-N′-methylsulfuric diamide] |
| 100 | Cc1cc(-c2c(F)cc(F)cc2F)c2c(N3C[C@H]4N(C[C@@H](NS(C)(=O)=O)C4(F)F)C3=O)noc2c1 [Example 140, N-{(6R,7aR)-7,7-difluoro-2-[6-methyl-4-(2,4,6-trifluorophenyl)-1,2-benzoxazol-3-yl]-3-oxohexahydro-1H-pyrrolo[1,2-c]imidazol-6-yl}methanesulfonamide] |
| 94 | CS(=O)(=O)N[C@@H]1Cn2c(cn(-c3noc4cc(C(F)F)cc(-c5c(F)cc(F)cc5F)c34)c2=O)C1(F)F [Example 141, N-{(6R)-2-[6-(difluoromethyl)-4-(2,4,6-trifluorophenyl)-1,2-benzoxazol-3-yl]-7,7-difluoro-3-oxo-2,5,6,7-tetrahydro-3H-pyrrolo[1,2-c]imidazol-6-yl}methanesulfonamide] |
| 102 | CNS(=O)(=O)N[C@@H]1CN2C(=O)N(c3noc4cc(F)cc(-c5c(F)cc(F)cc5F)c34)C[C@@H]2C1(F)F [Example 144, N-{(6R,7aR)-7,7-Difluoro-2-[6-fluoro-4-(2,4,6-trifluorophenyl)-1,2-benzoxazol-3-yl]-3-oxohexahydro-1H-pyrrolo[1,2-c]imidazol-6-yl}-N′-methylsulfuric diamide] |
| 105 | CCOc1cc(-c2c(F)cccc2F)c2c(N3C[C@H]4N(C[C@@H](NS(C)(=O)=O)C4(F)F)C3=O)noc2c1 [Example 145, N-{(6R,7aR)-2-[4-(2,6-difluorophenyl)-6-ethoxy-1,2-benzoxazol-3-yl]-7,7-difluoro-3-oxohexahydro-1H-pyrrolo[1,2-c]imidazol-6-yl}methanesulfonamide] |
| 92 | CCS(=O)(=O)N[C@H]1Cc2cn(-c3nsc4nc(C)cc(-c5c(F)cccc5F)c34)c(=O)n2C1 [Example 152, N-{(6S)-2-[4-(2,6-difluorophenyl)-6-methyl[1,2]thiazolo[5,4-b]pyridin-3-yl]-3-oxo-2,5,6,7-tetrahydro-3H-pyrrolo[1,2-c]imidazol-6-yl}ethanesulfonamide] |
| 96 | CCS(=O)(=O)N[C@@H]1CN2C(=O)N(c3noc4cc(C)cc(-c5c(F)cc(F)cc5F)c34)C[C@@H]2C1(F)F [Example 153, N-{(6R,7aR)-7,7-difluoro-2-[6-methyl-4-(2,4,6-trifluorophenyl)-1,2-benzoxazol-3-yl]-3-oxohexahydro-1H-pyrrolo[1,2-c]imidazol-6-yl}ethanesulfonamide] |
| 98 | CCS(=O)(=O)N[C@@H]1CN2C(=O)N(c3noc4cc(C)cc(-c5c(F)cccc5F)c34)C[C@@H]2C1(F)F [Example 154, N-{(6R,7aR)-2-[4-(2,6-difluorophenyl)-6-methyl-1,2-benzoxazol-3-yl]-7,7-difluoro-3-oxohexahydro-1H-pyrrolo[1,2-c]imidazol-6-yl}ethanesulfonamide] |
| 96 | CCS(=O)(=O)N[C@@H]1Cn2c(cn(-c3noc4cc(C)cc(-c5c(F)cc(F)cc5F)c34)c2=O)C1(F)F [Example 155, N-{(6R)-7,7-difluoro-2-[6-methyl-4-(2,4,6-trifluorophenyl)-1,2-benzoxazol-3-yl]-3-oxo-2,5,6,7-tetrahydro-3H-pyrrolo[1,2-c]imidazol-6-yl}ethanesulfonamide] |
